Measured values published in PMC12522106 (Cancer Research Communications, 2025).
Like-named read-outs stand apart in the source and are kept apart here.

Legend:
[1] = system: LM7 sarcospheres; assay: Transient romidepsin treatment, recovery of metabolic activity; format: cell-based, human; details: 10–100 nmol/L; followed to day 14
Procedure: (§1) Sarcosphere losses were minimized by removing the media stepwise (25 μL/step, 10 μL/second) and by centering the sarcospheres in the middle of each well by centrifugation (1,000 g for 6 minutes) before each media exchange cycle. After each assay of metabolic activity, resazurin was removed by three cycles of media exchange and the media were changed on days 10 and 12 by one cycle.

[2] = system: 143B sarcospheres; assay: as above; format: cell-based, human; details: followed to day 14
Procedure: as §1

[3] = system: subcutaneous xenograft models of osteosarcoma cell lines; details: cited from earlier work
[4] = system: LM7 sarcospheres; assay: Sarcosphere resazurin metabolic activity (initial and secondary screens); format: cell-based, human; details: secondary screen; without MAP
Procedure: (§2) Khanna DVM, PhD (NCI). […] Medium was sterile filtered before use.
(§3) Highly metastatic osteosarcoma cells cultured in monolayers at 50% to 80% confluence were lifted with Accutase (Innovative Cell Technologies, Inc., cat. #NC9839010), resuspended in media, and diluted to the desired concentration. […] Following cell seeding, plates were centrifuged (1,000 g for 10 minutes at 4°C) and then incubated at 37°C with 5% CO2. […] Then, 100 μL drug treatment or vehicle was added to each well. […] Resazurin reduction on day 2 by vehicle-treated sarcospheres was compared with resazurin reduction on day 0 to calculate sarcosphere growth without drug over 2 days in selected experiments.
(§4) Plates were incubated at 37°C in 5% CO2 for 2 or 6 hours.
(§5) Sarcospheres were matured for 24 hours and then treated for 48 hours with media containing 10 µmol/L of each drug and 0.1% DMSO. […] Growth inhibition represents a more clinically translatable measure for screening studies in which a value of 0% represents stable disease since the start of treatment, values of 0% to 100% represent progression in which 100% is the untreated control, and values less than 0% represent regression in which −100% represents blank wells without sarcospheres.

[5] = system: murine K7M2 osteosarcoma cells; parameters: method as in PMID 32599665; details: compared with LM7 model; cited from earlier work
[6] = system: LM7 sarcospheres; assay: Sarcosphere size (Incucyte); format: cell-based, human; details: 48-hour period
[7] = system: LM7 cell–derived lung metastases; parameters: method as in PMID 32599665; details: administration continued for the entire 21-week observation period; cited from earlier work
[8] = system: 143B sarcospheres; assay: Sarcosphere size (Incucyte); format: cell-based, human; details: initial 48-hour observation period
[9] = system: sarcospheres derived from 143B, MG63.3-GFP, and LM7 cell lines; assay: Sarcosphere resazurin metabolic activity, results stated across all three cell lines; format: cell-based, human; details: with and without MAP; vs belinostat, panobinostat, vorinostat, AR-42, resminostat
Procedure: as §2, §3, §4, §5

[10] = system: sarcospheres from canine patients with osteosarcoma; assay: Resazurin metabolic activity of canine patient-derived sarcospheres; format: cell-based; details: for ED50: 48 hours, metabolic activity
From the text: Osteosarcoma tissue was obtained during standard-of-care procedures (biopsies or resections) in human patients treated at Indiana University Health and Riley Children’s Hospital with Institutional Review Board approval (#1501467439). Tissue from canine patients with osteosarcoma was obtained from standard-of-care amputations at the Purdue University College of Veterinary Medicine and the Metropolitan Veterinary Hospital. Osteosarcoma diagnosis was confirmed by review of pathology reports. Demographic and clinical information for human and canine patients is in Table 1. Primary osteosarcoma cells were isolated by collagenase/mechanical dispersion using a modification of a previously described protocol ([35]). […] The tissue was rinsed with cold PBS (Cytiva, cat. #SH30028.02) and minced prior to incubation in 10 mL of culture media containing collagenase type II (750 units/mL with 13–18 units of clostripain/mL, Worthington, cat. #LS004176) for 3 hours at 37°C and 5% CO2. The media and tissue fragments were centrifuged at 200 g for 5 minutes. Pellets with a visible layer of red blood cells were then treated with 5 mL of ACK Lysing Buffer (Gibco, cat. #A10492-01) for 1 minute and then centrifuged at 200 g for 2 minutes. Pellets were resuspended in culture media, pipetted up and down 15 times to disperse tissue fragments, and centrifuged at 200 g for 5 minutes. Finally, any remaining tissue fragments were crushed with a 25-mL pipette and transferred with released cells and culture media to a 100-mm tissue culture dish and incubated at 37°C and 5% CO2. Media were changed every 3 days. When a confluence of ∼80% was reached, the cells were passaged to 150-mm dishes at 5,000 cells/cm^2. Aliquots of the patient-derived osteosarcoma cells were frozen in 10% DMSO (Sigma-Aldrich, D2650), 40% FBS (Cytiva, SH30071.03), and 50% culture media at second passage and stored in liquid nitrogen. The TT2-77 xenoline is a patient cell line that was isolated from a patient-derived xenograft (PDX) that was previously developed and characterized by the Pollok lab ([5]).
(§6) The number of patient-derived cells required to obtain sarcospheres with 400-μm diameters was determined for each patient and varied from 1,000 to 15,000 cells per sarcosphere.
Round-bottom 96-well plates were coated with 50 μL/well of 0.5% poly 2-hydroxyethyl methacrylate (Polysciences Inc., cat. #09689-25) in 100% ethanol and incubated at 37°C for 3 days before use to obtain a nonadherent surface. […] Highly metastatic osteosarcoma cells cultured in monolayers at 50% to 80% confluence were lifted with Accutase (Innovative Cell Technologies, Inc., cat. #NC9839010), resuspended in media, and diluted to the desired concentration.

[11] = system: patient-derived sarcospheres; assay: Sarcosphere size (Incucyte); format: cell-based, human, canine; details: 48-hour observation period; sensitive and resistant samples
Procedure: as §6

[12] = cited from earlier work
[13] = humans, cited from earlier work
[14] = system: monolayers of either established osteosarcoma cell lines or PDX cell lines; parameters: method as in PMID 30395907, PMID 26601688, PMID 37457661, PMID 35411591; details: cited from earlier work

For C/C=C1\NC(=O)[C@H]2CSSCC/C=C/[C@H](CC(=O)N[C@H](C(C)C)C(=O)N2)OC(=O)[C@H](C(C)C)NC1=O [romidepsin], the “recovery of metabolic activity after a 24-hour exposure” value [1] is given as “sustained effect for 14 days”, the “recovery of metabolic activity after a 24-hour exposure” value [2] is given as “rapidly recovered” and the tumor response ([3]; mice followed for 1 week after discontinuation) is given as “tumors regressed”. The response after discontinuation ([3]; mice followed for 6 weeks after discontinuation) was “did not induce a sustained response”, the “growth of well-established subcutaneous xenografts” value ([3]; small number of mice) was “inhibited growth” and the “rank of ED50 among the 13 drugs” value [4] was “lowest ED50”. The “effect on lung metastases” value [5] was “less effect”, the “effect on sarcosphere size” value [6] was “did not alter size” and the “growth of lung metastases” value [7] was “prevented”. For the same compound, the “effect on sarcosphere size” value [8] was “inhibited the increase in size”, the “rank of ED50s among tested HDIs” value [9] was “lowest ED50s” and the “share of canine patient samples whose sarcospheres responded” value ([10]; ED50s <70 nmol/L) was 50%. For the same compound, the ED50 ([10]; canine patient sample MVHcOS001 (romidepsin resistant)) was >1,000 nmol/L, the ED50 ([10]; canine patient sample MVHcOS002 (romidepsin resistant)) was >1,000 nmol/L and the ED50 ([10]; canine patient sample MVHcOS003 (romidepsin sensitive)) was 22 nmol/L. The ED50 ([10]; canine patient sample MVHcOS004 (romidepsin sensitive)) was 6 nmol/L, the ED50 ([10]; canine patient sample MVHcOS005 (romidepsin resistant)) was >1,000 nmol/L and the ED50 ([10]; canine patient sample MVHcOS006 (romidepsin resistant)) was >1,000 nmol/L. For the same compound, the ED50 ([10]; canine patient sample PUcOS001 (romidepsin sensitive)) was 65 nmol/L, the ED50 ([10]; canine patient sample PUcOS002 (romidepsin sensitive)) was 46 nmol/L and the ED50 ([10]; canine patient sample PUcOS003 (romidepsin resistant)) was >1,000 nmol/L. The ED50 ([10]; canine patient sample PUcOS004 (romidepsin sensitive)) was 57 nmol/L, the “effect on sarcosphere size” value [11] was “did not change in size” and the “most common severe adverse events” value [12] was “thrombocytopenia and neutropenia”. For the same compound, the “most common side effect” value [12] was “Nausea”, the severe toxicities [12] was “few severe toxicities” and the “most concerning potential side effect” value ([12]; reported in humans, rats, and beagle dogs) was “cardiac toxicity”. The Cmax [13] was about 700 nM, the Cmax ([13]; listed as Romidepsin) was 700 nM and the “standing in four independent screens” value [14] was “among the top hits”.
